From EP1818060A1, “Cosmetic composition comprising Fadogia ancylantha extracts” (ARTSANA S.p.A., priority 2005, dated 2007) come the findings set out here.

Marks after values point to notes of the source that are not given here.

This assay is described as follows: Antioxidant activity, DPPH test. Conditions: second SC50 column; control; in brackets tolerated range 95%. Format: biochemical. As for the experimental part:
The antioxidant activity of the dry extract A, obtained as above illustrated in Example 1, of Fadogia ancylantha was determined using the 2,2 diphenyl-1-picrilhydrazilic stable radical (DPPH°) and α-tocopherol as a control, according to the protocol disclosed by Aquino R. et al. in "Phenolic constituents and antioxidant activity of an extract of Anthurium versicolor leaves", J. of Natural products 64, 1019-1023.
The decrease of absorbance measured according to the above protocol is directly correlated with the free-radical scavenger ability of the antioxidant under test.
The DPPH° percentage remaining at the steady state (%DPPH°RIM) is calculated by applying the following formula %DPPH°RIM = (DPPH)° × T1 /(DPPH°) × To × 100 [formula] where T1 is the time to reach the steady state.
The amount of the antioxidant needed to reduce the radical initial concentration to a half (SC50, expressed as µg of the extract/ml) was calculated from the percentage of DPPH°RIM with respect to the antioxidant concentrations used.
All tests were carried out in triplicate and repeated for three times.
On the technique in general: The DPPH test is a chemical assay of radical scavenging.

As for `Cc1c(C)c2c(c(C)c1O)CC[C@@](C)(CCC[C@H](C)CCC[C@H](C)CCCC(C)C)O2` [α-tocopherol], the “DPPH test SC50” value is on record as 10.1 (8.8-11.4)^c µg/ml of phenols.
